The values that follow are results of earlier work, collected in article PMC11949389 (Polish Journal of Microbiology, 2025).

Molecules are shown by their SMILES. pIC50: −log10 of the molar value. Values after ≈ are worked out from the molar mass of the structure shown. Read-outs that look alike come from different tables or passages of the source.

For data set [1], the system named is Staphylococcus sp. To be noted: ref Caballero Gómez et al. 2022.
The subject of data set [2] is Staphylococcus aureus.
Data set [3] relates to Klebsiella pneumoniae. To be noted: ref Sayout et al. 2020, de Souza et al. 2021, Kwiatkowski et al. 2022.
In data set [4] the test system is Campylobacter jejuni. The following applies: C. jejuni; ref Šimunović et al. (2020).
Data set [5] deals with Candida auris.
Data set [6] deals with staphylococcal isolates. To be noted: ref Sim et al. 2019.
Data set [7] concerns carbapenem and polymyxin-resistant Klebsiella pneumoniae. To be noted: murine models, compared to polymyxin B treatment; ref de Souza et al. (2021).
Data set [8] deals with carbapenem-resistant E. coli and P. aeruginosa. To be noted: ref Owen et al. (2019).
The subject of data set [9] is Salmonella Typhimurium. The following applies: ref Giovagnoni et al. (2020).
Data set [10] deals with Candida species. To be noted: ref Stringaro et al. (2022).
Data set [11] deals with HIV-1. To be noted: ref Mediouni et al. (2020).
The subject of data set [12] is TetK efflux pump. The following applies: S. aureus, ref Sousa Silveira et al. (2020).

By MIC is commonly meant the lowest concentration that inhibits growth of the organism. The term MIC90 denotes the lowest concentration that inhibits either 90% of growth or 90% of the strains tested, depending on the study. Usually pIC50 stands for the IC50 on a negative log10 scale, so that one unit is a factor of ten. Take `Cc1ccc(C(C)C)cc1O` [Carvacrol]: the MIC/Sensitivity is 200 to 400 µg/mL in data set [1]; 256 to 3200 µg/mL in [2] (Staphylococcus aureus, ref Kwiatkowski et al. 2020, Sayout et al. 2020, Sousa Silveira et al. 2020, Macêdo et al. 2022, Noumi et al. 2023, Sharma et al. 2023); 130 to 1910 µg/mL in data set [3]. For the same compound, the minimum inhibitory concentration (MIC) was 256 µg/mL (≈ 1700 µM) in data set [2] (S. aureus, ref Sousa Silveira et al. (2020)); 1870 µM (≈ 281 µg/mL) in data set [9]; 97.5 to 195 µg/mL in [10]. The efflux pump inhibition entry in [4] is on record as “weaker effect”; in data set [12], “did not act as efflux pump inhibitors”. In addition, the Mechanisms of action result in data set [5] (ref Ismail et al. 2022) is “• Induced oxidative stress • Increased CAT, SOD and GPx enzyme activity • Decreased GR and GST enzyme activity • Caused membrane disintegration”; in data set [5] (ref Shaban et al. 2020) it was “• Reduced proteinase production and host cell adherence”. Further, in data set [6], the MIC90 was 146 to 200 µg/mL. Further, the “bacterial counts in infections” value in data set [7] is recorded as “reduced bacterial counts”. Moreover, in [7], the survival result is “significantly improved survival”. Moreover, the activity entry in data set [8] was “ineffective”. Besides, the pIC50 in data set [11] (HIV-1) was 4.80. Moreover, the “reduction of viral infectivity” value in data set [11] (pretreatment of HIV) is recorded as 60.6%.
